From ChEMBL document CHEMBL2407029 (Bioorg Med Chem Lett, 2013)
Square brackets hold non-standard residues; d marks the D form. Peptide text beside a SMILES is read from it. Phe(4-I) = N[C@@H](Cc1ccc(I)cc1)C(=O)O

Legend:
[1] = (§1) Binding affinity to opioid receptor in CD-1 mouse brain after 90 mins; settings: read-out: Kd(app)
[2] = target: Kappa-type opioid receptor (Homo sapiens, UniProt P41145); assay: Displacement of [125]IBNtxA from KOR-1 (unknown origin) transfected in CHO cells after 90 mins by competitive binding assay; format: cell-based
[3] = target: Delta-type opioid receptor (Homo sapiens, UniProt P41143); assay: Displacement of [125]IBNtxA from DOR-1 (unknown origin) transfected in CHO cells after 90 mins by competitive binding assay; format: cell-based
[4] = Displacement of [131I]-[D-Ala2,4'-I-Phe8]alpha-Neoendorphin from opioid receptor in CD-1 mouse brain after 90 mins by competitive binding assay; format: tissue-based
Mus musculus = species on record: Mus musculus; assay: as §1; settings: tested as the 131I-labelled form

SMILES	Ki [4] [nM]	also measured
CC(C)C[C@H](NC(=O)[C@H](Cc1ccccc1)NC(=O)CNC(=O)[C@@H](C)NC(=O)[C@@H](N)Cc1ccc(O)cc1)C(=O)N[C@@H](CCCNC(=N)N)C(=O)N[C@@H](CCCCN)C(=O)N[C@@H](Cc1ccc([131I])cc1)C(=O)N1CCC[C@H]1C(=O)N[C@@H](CCCCN)C(=O)O	–	Kd [1]: 11 nM
CC(C)C[C@H](NC(=O)[C@H](Cc1ccccc1)NC(=O)CNC(=O)CNC(=O)[C@@H](N)Cc1ccc(O)cc1)C(=O)N[C@@H](CCCNC(=N)N)C(=O)N[C@@H](CCCCN)C(=O)N[C@@H](Cc1ccc(O)cc1)C(=O)N1CCC[C@H]1C(=O)N[C@@H](CCCCN)C(=O)O (H-YGGFLRKYPK-OH)	9.8	Ki [2]: 2.4 nM; Ki [3]: 1.7 nM
CC(C)C[C@H](NC(=O)[C@H](Cc1ccccc1)NC(=O)CNC(=O)[C@@H](C)NC(=O)[C@@H](N)Cc1ccc(O)cc1)C(=O)N[C@@H](CCCNC(=N)N)C(=O)N[C@@H](CCCCN)C(=O)N[C@@H](Cc1ccc(I)cc1)C(=O)N1CCC[C@H]1C(=O)N[C@@H](CCCCN)C(=O)O (H-Y[dA]GFLRK[Phe(4-I)]PK-OH)	–	Bmax (Mus musculus): 465 fmol/mg
C[C@@H](NC(=O)[C@@H](N)Cc1ccc(O)cc1)C(=O)NCC(=O)N(C)[C@@H](Cc1ccccc1)C(=O)NCCO [DAMGO]	1.4	–
CC[C@H](C)[C@H](NC(=O)[C@H](CCCNC(=N)N)NC(=O)[C@H](CCCNC(=N)N)NC(=O)[C@H](CC(C)C)NC(=O)[C@H](Cc1ccccc1)NC(=O)CNC(=O)CNC(=O)[C@@H](N)Cc1ccc(O)cc1)C(=O)N[C@@H](CCCNC(=N)N)C(=O)N1CCC[C@H]1C(=O)N[C@@H](CCCCN)C(=O)N[C@@H](CC(C)C)C(=O)N[C@@H](CCCCN)C(=O)N[C@@H](Cc1c[nH]c2ccccc12)C(=O)N[C@@H](CC(=O)O)C(=O)N[C@@H](CC(N)=O)C(=O)N[C@@H](CCC(N)=O)C(=O)O [DYNORPHIN A (1-17)]	5.5	–
CC(C)C[C@H](NC(=O)[C@H](Cc1ccccc1)NC(=O)CNC(=O)CNC(=O)[C@@H](N)Cc1ccc(O)cc1)C(=O)N[C@@H](CCCNC(=N)N)C(=O)N[C@@H](CCCNC(=N)N)C(=O)N[C@@H](CCC(N)=O)C(=O)N[C@@H](Cc1ccccc1)C(=O)N[C@@H](CCCCN)C(=O)N[C@H](C(=O)N[C@H](C(=O)N[C@H](C(=O)O)[C@@H](C)O)C(C)C)C(C)C [DYNORPHIN B]	6.7	–
